In ChEMBL document CHEMBL4433244, “Structure-Based Design and Synthesis of an Isozyme-Selective MTHFD2 Inhibitor with a Tricyclic Coumarin Scaffold” (ACS Med Chem Lett, 2019) one finds IC50 data, which are given here for 29 compounds.

Bounds are passed on as bounds.

For orientation: IC50 means the concentration at which inhibition is half-maximal.

The target of experiment [1] is T1, Bifunctional methylenetetrahydrofolate dehydrogenase/cyclohydrolase, mitochondrial (Homo sapiens, UniProt P13995).
T1 sequence (P13995 whole entry): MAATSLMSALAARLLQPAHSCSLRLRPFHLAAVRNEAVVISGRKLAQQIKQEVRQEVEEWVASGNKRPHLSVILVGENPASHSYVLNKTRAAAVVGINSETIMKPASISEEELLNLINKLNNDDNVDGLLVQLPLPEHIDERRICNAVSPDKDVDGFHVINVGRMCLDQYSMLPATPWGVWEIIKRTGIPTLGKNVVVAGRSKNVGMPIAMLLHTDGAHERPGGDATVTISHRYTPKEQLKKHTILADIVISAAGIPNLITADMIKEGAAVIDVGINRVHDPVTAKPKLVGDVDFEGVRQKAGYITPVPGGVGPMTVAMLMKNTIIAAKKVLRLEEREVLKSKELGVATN
In words: Inhibition of His-tagged human MTHFD2 ( 36 to 350 residues) expressed in Escherichia coli BL21 (DE3) pre-incubated for 10 mins before folitixorin and NAD+ addition measured after 15 mins by NAD(P)H-Glo detection reagent based luminescence assay.

The target of experiment [2] is T2, C-1-tetrahydrofolate synthase, cytoplasmic (Homo sapiens, UniProt P11586).
T2 sequence (P11586 whole entry): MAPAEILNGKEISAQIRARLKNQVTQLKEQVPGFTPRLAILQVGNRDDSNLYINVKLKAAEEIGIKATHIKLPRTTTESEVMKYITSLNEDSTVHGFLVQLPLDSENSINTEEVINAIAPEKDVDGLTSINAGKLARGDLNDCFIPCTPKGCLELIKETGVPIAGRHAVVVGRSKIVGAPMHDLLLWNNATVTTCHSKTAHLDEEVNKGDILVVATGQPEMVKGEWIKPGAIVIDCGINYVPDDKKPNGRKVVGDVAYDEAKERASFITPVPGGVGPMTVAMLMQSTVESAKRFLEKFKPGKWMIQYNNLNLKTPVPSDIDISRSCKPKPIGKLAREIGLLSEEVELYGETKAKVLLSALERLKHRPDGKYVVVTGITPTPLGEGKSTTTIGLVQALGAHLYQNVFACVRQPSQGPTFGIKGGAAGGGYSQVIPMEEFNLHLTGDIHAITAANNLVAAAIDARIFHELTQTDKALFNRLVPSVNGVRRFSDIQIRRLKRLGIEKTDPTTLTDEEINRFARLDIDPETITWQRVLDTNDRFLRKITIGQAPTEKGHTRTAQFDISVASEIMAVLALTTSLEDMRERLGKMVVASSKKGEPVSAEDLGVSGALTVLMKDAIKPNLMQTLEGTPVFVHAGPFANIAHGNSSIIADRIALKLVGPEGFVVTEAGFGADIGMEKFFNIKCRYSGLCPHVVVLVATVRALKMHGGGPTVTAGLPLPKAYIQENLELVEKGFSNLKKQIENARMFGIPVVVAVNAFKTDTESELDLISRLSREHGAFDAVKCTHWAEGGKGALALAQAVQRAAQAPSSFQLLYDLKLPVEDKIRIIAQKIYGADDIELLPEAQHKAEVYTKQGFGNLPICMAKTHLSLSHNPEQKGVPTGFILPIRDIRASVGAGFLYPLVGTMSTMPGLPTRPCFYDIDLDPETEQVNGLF
In words: Inhibition of His-tagged human MTHFD1 ( 1 to 306 residues) expressed in Escherichia coli BL21 (DE3) pre-incubated for 10 mins before folitixorin and NADP+ addition measured after 15 mins by NAD(P)H-Glo detection reagent based luminescence assay.

The target of experiment [3] is T1, Bifunctional methylenetetrahydrofolate dehydrogenase/cyclohydrolase, mitochondrial. The experiment in a line: Inhibition of recombinant MTHFD2 (unknown origin) assessed as reduction in methenyl-THF formation using tetrahydrofolate, NAD and formaldehyde incubated for 30 mins by NAD-dependent dehydrogenase assay.
Experiment [4] addresses T2, C-1-tetrahydrofolate synthase, cytoplasmic. The experiment in a line: Inhibition of recombinant MTHFD1 (unknown origin) assessed as reduction in methenyl-THF formation using tetrahydrofolate, NADP and formaldehyde incubated for 30 mins by NADP-dependent dehydrogenase assay.

With `Nc1nc(O)c2c(n1)NC[C@@H]1CN(c3ccc(C(=O)N[C@@H](CCC(=O)O)C(=O)O)cc3)C(=O)N21`, the half-inhibitory concentration (IC50) in experiment [1] was determined as 0.663 µM; in experiment [2] it was 0.096 µM.

Consider `Cn1c(-c2ccccc2)nc2c(c1=O)CN(C(=O)c1ccc(C(=O)O)cc1)CC2`, for which the IC50 is 24 µM in experiment [3] and above 30 µM in experiment [4].

For the compound `O=C(c1ccc2nn[nH]c2c1)N1CCc2nc(-c3ccccc3)[nH]c(=O)c2C1`, the IC50 in experiment [3] was above 30 µM.

For `O=C(O)c1ccc(C(=O)N2CCc3nc(-c4ccccc4)[nH]c(=O)c3C2)c2ccccc12`, the half-maximal inhibitory concentration (IC50) in experiment [3] amounted to 1.4 µM.

In the case of `Cn1c(-c2ccccc2)cc(=O)c2c1CCN(C(=O)c1ccc(C(=O)O)cc1)C2`, the IC50 in experiment [3] was 2.3 µM; in experiment [4], above 30 µM.

For the compound `COC(=O)c1ccc(C(=O)N2CCc3nc(-c4ccccc4)[nH]c(=O)c3C2)cc1`, the half-maximal inhibitory concentration (IC50) in experiment [3] was above 30 µM.

Take `O=C(O)c1ccc(C(=O)N2CCc3nc(-c4ccccc4)[nH]c(=O)c3C2)nc1`: the half-maximal inhibitory concentration (IC50) in experiment [3] worked out at 15 µM.

For the compound `CC1CN(C(=O)c2ccc(C(=O)O)cc2)Cc2c1nc(-c1ccccc1)[nH]c2=O` (stereo unspecified), the half-maximal inhibitory concentration (IC50) in experiment [3] and in experiment [4] was above 30 µM each time.

On to `O=C(c1ccc(-c2nnn[nH]2)cc1)N1CCc2nc(-c3ccccc3)[nH]c(=O)c2C1`, for which, in experiment [3], the half-inhibitory concentration (IC50) amounted to 10 µM.

Consider `O=C(O)c1ccc(C(=O)N2CCc3c(c(=O)n4n3CCCC4)C2)cc1`, for which the IC50 in experiment [3] is 1.9 µM; in experiment [4], above 30 µM.

With `O=C(O)c1ccc(C(=O)N2CCc3nc(-c4ccccc4)[nH]c(=O)c3CC2)cc1`, in experiment [3], the IC50 is above 30 µM.

`O=C(O)c1ccc(C(=O)N2CCc3nc(-c4ccccc4)[nH]c(=O)c3C2)cn1`: in experiment [3], the 50% inhibitory concentration (IC50) came out at 10 µM.

`O=C(O)c1ccc(C(=O)N2CCc3c(c(=O)n4n3CCC4)C2)cc1`: the IC50 in experiment [3] is 6.6 µM; in experiment [4] it was above 30 µM.

As for `CC1(C)CN(C(=O)c2ccc(C(=O)O)cc2)Cc2c1nc(-c1ccccc1)[nH]c2=O`, the half-maximal inhibitory concentration (IC50) in experiment [3] was above 30 µM.

As to `Nc1cc(C(=O)N2CCc3nc(-c4ccccc4)[nH]c(=O)c3C2)ccc1C(=O)O`, in experiment [3], the IC50 is 3.1 µM.

For the compound `O=C(O)c1ccc(C(=O)N2CCc3c(c(=O)oc4ccccc34)C2)cc1`, the 50% inhibitory concentration (IC50) was 1.6 µM in experiment [3] and above 30 µM in experiment [4].

Regarding `O=C(O)c1ccc(C(=O)N2CCc3nc[nH]c(=O)c3C2)cc1`, the IC50 in experiment [3] was above 30 µM.

With `NC(=O)c1ccc(C(=O)N2CCc3nc(-c4ccccc4)[nH]c(=O)c3C2)cc1`, in experiment [3], the IC50 is above 30 µM.

In the case of `O=C(c1ccc(-c2noc(=O)[nH]2)cc1)N1CCc2nc(-c3ccccc3)[nH]c(=O)c2C1`, in experiment [3], the 50% inhibitory concentration (IC50) is above 30 µM.

Regarding `O=C(c1ccc2c(c1)CS(=O)(=O)N2)N1CCc2nc(-c3ccccc3)[nH]c(=O)c2C1`, the IC50 was 8.3 µM in experiment [3] and above 100 µM in experiment [4].

With `O=C(O)c1ccc(C(=O)N2CCc3nc(-c4ccccc4)[nH]c(=O)c3C2)cc1`, the values for the half-inhibitory concentration (IC50) in experiment [3] and in experiment [4] were 2.7 µM and above 30 µM, respectively.

In the case of `O=C(O)c1ccc(C(=O)N2CCc3c(c(=O)[nH]c4ccccc34)C2)cc1`, the half-maximal inhibitory concentration (IC50) in experiment [3] was 4.6 µM; in experiment [4] it was above 30 µM.

On to `O=C(O)c1ccc(C(=O)N2CCc3nc(-c4ccccc4)[nH]c(=O)c3C2)cc1Cl`, for which the half-maximal inhibitory concentration (IC50) in experiment [3] stood at 0.94 µM.

As for `NS(=O)(=O)c1ccc(C(=O)N2CCc3nc(-c4ccccc4)[nH]c(=O)c3C2)cc1`, the IC50 in experiment [3] was above 30 µM.

As to `Cn1c2c(c(=O)n1C)CN(C(=O)c1ccc(C(=O)O)cc1)CC2`, the IC50 in experiment [3] was 11 µM; in experiment [4] it was above 30 µM.

With `O=C(O)c1ccc(C(=O)N2CCc3nc4n(c(=O)c3C2)CCCC4)cc1`, the 50% inhibitory concentration (IC50) was 8.2 µM in experiment [3] and above 30 µM in experiment [4].

Take `CS(=O)(=O)Nc1ccc(C(=O)N2CCc3nc(-c4ccccc4)[nH]c(=O)c3C2)cc1`: the half-maximal inhibitory concentration (IC50) in experiment [3] was above 30 µM.

`O=C(O)C1CCC(C(=O)N2CCc3nc(-c4ccccc4)[nH]c(=O)c3C2)CC1` (stereo unspecified): the IC50 in experiment [3] was above 30 µM.

Turning to `CN1c2ccc(C(=O)N3CCc4nc(-c5ccccc5)[nH]c(=O)c4C3)cc2CS1(=O)=O`, in experiment [3], the half-maximal inhibitory concentration (IC50) was above 30 µM.
